Assay results reported in patent US10246498B2, “Genetically encoded histone reporter allele constructs” (THE JOHNS HOPKINS UNIVERSITY, priority 2014, dated 2019).
Entries after “also recorded” stand apart in the source; their conditions may differ.

Columns and labels:
[1] = tested on: H3K4 trimethylation; test: H3K4 trimethylation (H3K4me3) reporter allele, GFP fluorescence by FACS; type: cell-based; conditions: FIG. 18F
Description: An H3K4 trimethylation reporter was also created (FIG. 5B). This reporter is based on the H3 tail on one end and the TBP associated factor III (TAFIII) […] on the other end; the TAFIII […] only identifies and binds to trimethylated K4 on H3. When the H3K4 site gets trimethylated, the TAFIII […] can bind to the modified H3 tail and bring the two parts of the separated GFP in close proximity. The activity of the epigenetic modification system can be quantified through fluorescence.
Epigenetic reporter alleles were synthesized (OriGene, Rockville, Md.) using published sequences for component elements (Baird et al. (1999) Proc. Natl. Acad. Sci. 96:11241-6; Souslova et al. (2007) BMC Biotechnol. 7:37). Single nucleotide mutations were created using the QuickChange Lightening kit (Agilent Technologies Inc, Santa Clara, Calif.). […] FACS data were analyzed using FlowJo (Tree Star Inc, Ashland, Oreg.). […]
Epigenetic reporter systems were created that monitor either H4 acetylation or H3K4 trimethylation machinery activity in an effort to determine whether there is an ongoing activity deficiency in cells from Kmt2d^+/βGeo mice (FIG. 18A). Both reporter alleles encode halves of green fluorescent protein separated by a flexible linker region (Baird et al. (1999) Proc. Natl. Acad. Sci. 96: 11241-6) with a histone tail and a histone reader at the N- and C-termini, respectively. […]

[2] = tested on: Klf10; test: Real-time PCR of Kmt2d target gene Klf10 in spleen cells; type: in vivo, mouse; conditions: spleen cells of Kmt2d+/βGeo mice
Method: Real-time PCR was performed using Kmt2d-specific probes for exons 20 and 52 (Mm_02600438 and Mm_01717664, respectively) from TaqMan® Gene Expression Assays (Life Technologies, Carlsbad, Calif.). For a comparison of transfection efficiencies for indicator constructs in transient transfection studies, real-time PCR was performed using SYBR Green Real-Time PCR Master Mix (Life Technologies, Carlsbad, Calif.) and primers IND-F-([…]; SEQ ID NO: 5) and IND-R-([…]; SEQ ID NO: 6) that are specific for the H3K4 methylation indicator. For expression analysis for KMT2D target gene KLF10, real-time PCR was performed using Klf10-specific expression assay (Mm00449812_m1) from TaqMan® Gene Expression Assays (Life Technologies, Carlsbad, Calif.).

cell numbers ([1]; higher doses): decreased cell numbers at higher doses
Compound: CC(C)[C@H](C(=O)Nc1ccc(C(=O)NO)cc1)c1ccccc1 [AR-42]
response of the H3K4me3 indicator ([1]; increasing levels of drug): dose dependent response
Klf10 expression [2]: normalization of expression of Klf10; also recorded: normalized
